# From publication PMC8617627, “Novel DYRK1A Inhibitor Rescues Learning and Memory Deficits in a Mouse Model of Down Syndrome” (Pharmaceuticals, 2021)
# Read-outs that look alike come from different tables or passages of the source.
# Tests used:
# Experiment in all cases: Kinase profile (33P ATP filter binding)
# Format in all cases: biochemical
# [1] = biological target: PDGFRA (Homo sapiens, UniProt P16234); details: read-out: Remaining protein kinase activity
# [2] = biological target: PAK5 (Homo sapiens, UniProt Q9P286); details: read-out: Remaining protein kinase activity
# PAK5, sequence (Q9P286 whole entry): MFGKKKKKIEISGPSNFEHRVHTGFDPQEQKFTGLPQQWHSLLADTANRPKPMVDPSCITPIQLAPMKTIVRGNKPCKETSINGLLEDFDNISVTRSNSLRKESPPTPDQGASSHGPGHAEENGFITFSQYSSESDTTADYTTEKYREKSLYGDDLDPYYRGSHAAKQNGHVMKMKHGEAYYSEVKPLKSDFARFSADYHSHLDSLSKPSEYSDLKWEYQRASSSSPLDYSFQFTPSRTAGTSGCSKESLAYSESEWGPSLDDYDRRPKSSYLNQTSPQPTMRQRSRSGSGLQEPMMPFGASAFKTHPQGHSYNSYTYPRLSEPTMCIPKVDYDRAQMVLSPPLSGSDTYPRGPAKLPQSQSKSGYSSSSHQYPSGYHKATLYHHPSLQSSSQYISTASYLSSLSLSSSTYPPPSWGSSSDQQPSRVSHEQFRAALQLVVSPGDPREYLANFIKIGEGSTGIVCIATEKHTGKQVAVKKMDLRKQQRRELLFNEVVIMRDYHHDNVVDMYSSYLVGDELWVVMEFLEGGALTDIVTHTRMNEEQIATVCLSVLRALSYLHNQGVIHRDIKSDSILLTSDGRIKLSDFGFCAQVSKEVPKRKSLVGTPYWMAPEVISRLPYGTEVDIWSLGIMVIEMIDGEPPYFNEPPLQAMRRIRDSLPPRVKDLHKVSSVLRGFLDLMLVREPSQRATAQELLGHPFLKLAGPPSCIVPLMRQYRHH
# [3] = biological target: T1, TBK1 (Homo sapiens, UniProt Q9UHD2); details: read-out: Remaining protein kinase activity
# T1 sequence (Q9UHD2 1-729): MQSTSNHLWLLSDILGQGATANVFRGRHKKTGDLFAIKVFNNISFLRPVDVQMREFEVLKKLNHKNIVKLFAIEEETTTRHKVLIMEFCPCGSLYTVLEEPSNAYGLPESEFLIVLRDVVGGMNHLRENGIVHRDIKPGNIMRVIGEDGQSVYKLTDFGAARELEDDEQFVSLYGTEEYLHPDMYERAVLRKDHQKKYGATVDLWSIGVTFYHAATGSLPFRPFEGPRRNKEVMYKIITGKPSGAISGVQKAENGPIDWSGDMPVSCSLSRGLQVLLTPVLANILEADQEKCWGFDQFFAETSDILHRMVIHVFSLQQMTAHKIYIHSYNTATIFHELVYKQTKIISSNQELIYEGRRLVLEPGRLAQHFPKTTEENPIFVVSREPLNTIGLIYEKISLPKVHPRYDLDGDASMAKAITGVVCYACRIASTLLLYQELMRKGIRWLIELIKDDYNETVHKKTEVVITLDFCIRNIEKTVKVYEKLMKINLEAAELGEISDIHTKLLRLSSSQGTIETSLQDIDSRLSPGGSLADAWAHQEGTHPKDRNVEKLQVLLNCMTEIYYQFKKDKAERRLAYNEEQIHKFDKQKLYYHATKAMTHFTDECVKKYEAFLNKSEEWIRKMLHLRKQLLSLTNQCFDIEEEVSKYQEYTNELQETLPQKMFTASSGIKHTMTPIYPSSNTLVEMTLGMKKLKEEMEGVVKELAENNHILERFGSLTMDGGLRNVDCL
# [4] = biological target: p38a MAPK (Homo sapiens, UniProt Q16539)
# p38a MAPK, sequence (Q16539 whole entry): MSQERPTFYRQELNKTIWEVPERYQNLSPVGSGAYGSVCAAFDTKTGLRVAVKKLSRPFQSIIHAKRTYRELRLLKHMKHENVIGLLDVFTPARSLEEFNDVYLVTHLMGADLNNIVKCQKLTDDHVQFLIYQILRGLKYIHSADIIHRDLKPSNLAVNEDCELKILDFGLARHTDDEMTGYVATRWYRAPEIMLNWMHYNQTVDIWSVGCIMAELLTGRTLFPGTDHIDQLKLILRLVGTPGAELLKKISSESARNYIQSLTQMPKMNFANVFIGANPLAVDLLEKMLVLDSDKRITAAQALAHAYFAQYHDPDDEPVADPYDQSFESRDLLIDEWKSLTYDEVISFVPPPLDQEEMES
# [5] = biological target: IRR (Homo sapiens, UniProt P14616); details: read-out: Remaining protein kinase activity
# [6] = biological target: MLK3 (Homo sapiens, UniProt Q16584)
# MLK3, sequence (Q16584 whole entry): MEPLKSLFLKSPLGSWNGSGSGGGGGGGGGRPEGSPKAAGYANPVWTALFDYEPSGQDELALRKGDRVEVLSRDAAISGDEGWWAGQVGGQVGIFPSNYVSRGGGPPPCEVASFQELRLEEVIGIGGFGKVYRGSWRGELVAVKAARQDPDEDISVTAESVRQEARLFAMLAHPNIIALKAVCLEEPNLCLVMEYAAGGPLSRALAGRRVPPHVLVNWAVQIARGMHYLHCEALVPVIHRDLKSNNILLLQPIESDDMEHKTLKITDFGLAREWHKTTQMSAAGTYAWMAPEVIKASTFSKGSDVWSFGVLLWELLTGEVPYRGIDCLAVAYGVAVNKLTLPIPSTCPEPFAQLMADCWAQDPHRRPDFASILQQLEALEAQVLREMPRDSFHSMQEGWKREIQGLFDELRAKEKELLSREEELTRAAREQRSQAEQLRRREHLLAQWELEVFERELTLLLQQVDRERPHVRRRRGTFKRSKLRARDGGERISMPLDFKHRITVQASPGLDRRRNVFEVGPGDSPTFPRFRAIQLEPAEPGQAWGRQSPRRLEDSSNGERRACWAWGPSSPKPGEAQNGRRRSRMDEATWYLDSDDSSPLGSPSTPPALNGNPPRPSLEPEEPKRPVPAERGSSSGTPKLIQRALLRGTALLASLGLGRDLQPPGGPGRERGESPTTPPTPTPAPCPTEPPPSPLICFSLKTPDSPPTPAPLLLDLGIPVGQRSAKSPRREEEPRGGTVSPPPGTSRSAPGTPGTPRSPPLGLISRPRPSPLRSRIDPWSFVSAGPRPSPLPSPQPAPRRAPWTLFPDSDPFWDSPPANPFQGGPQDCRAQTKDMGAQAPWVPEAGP
# [7] = biological target: CK1δ (Homo sapiens, UniProt P48730); details: read-out: Remaining protein kinase activity
# CK1δ, sequence (P48730 whole entry): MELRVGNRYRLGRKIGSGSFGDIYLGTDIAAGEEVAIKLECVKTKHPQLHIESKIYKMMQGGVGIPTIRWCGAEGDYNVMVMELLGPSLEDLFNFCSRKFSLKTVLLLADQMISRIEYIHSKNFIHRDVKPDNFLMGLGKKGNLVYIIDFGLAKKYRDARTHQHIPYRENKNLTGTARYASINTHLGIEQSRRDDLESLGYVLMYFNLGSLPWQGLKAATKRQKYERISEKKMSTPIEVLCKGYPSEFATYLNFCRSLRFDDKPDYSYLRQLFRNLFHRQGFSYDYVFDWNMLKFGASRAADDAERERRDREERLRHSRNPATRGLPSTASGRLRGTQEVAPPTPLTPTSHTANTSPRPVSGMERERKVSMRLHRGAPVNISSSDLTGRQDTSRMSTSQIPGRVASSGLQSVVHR
# [8] = biological target: T2, SGK1 (Homo sapiens, UniProt O00141); details: read-out: Remaining protein kinase activity
# T2 sequence (O00141 1-431): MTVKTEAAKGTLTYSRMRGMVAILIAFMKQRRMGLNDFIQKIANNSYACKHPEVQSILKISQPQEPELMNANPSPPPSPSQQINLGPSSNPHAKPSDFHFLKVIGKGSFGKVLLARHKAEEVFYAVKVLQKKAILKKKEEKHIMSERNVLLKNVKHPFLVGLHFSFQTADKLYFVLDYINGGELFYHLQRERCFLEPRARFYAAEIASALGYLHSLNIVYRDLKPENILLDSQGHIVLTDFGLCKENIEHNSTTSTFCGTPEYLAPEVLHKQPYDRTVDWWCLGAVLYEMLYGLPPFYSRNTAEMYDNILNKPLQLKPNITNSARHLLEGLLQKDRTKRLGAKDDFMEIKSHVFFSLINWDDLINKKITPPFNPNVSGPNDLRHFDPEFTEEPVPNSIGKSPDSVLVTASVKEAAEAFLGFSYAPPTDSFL
# [9] = biological target: JAK2 (Homo sapiens, UniProt O60674)
# JAK2, sequence (O60674 whole entry): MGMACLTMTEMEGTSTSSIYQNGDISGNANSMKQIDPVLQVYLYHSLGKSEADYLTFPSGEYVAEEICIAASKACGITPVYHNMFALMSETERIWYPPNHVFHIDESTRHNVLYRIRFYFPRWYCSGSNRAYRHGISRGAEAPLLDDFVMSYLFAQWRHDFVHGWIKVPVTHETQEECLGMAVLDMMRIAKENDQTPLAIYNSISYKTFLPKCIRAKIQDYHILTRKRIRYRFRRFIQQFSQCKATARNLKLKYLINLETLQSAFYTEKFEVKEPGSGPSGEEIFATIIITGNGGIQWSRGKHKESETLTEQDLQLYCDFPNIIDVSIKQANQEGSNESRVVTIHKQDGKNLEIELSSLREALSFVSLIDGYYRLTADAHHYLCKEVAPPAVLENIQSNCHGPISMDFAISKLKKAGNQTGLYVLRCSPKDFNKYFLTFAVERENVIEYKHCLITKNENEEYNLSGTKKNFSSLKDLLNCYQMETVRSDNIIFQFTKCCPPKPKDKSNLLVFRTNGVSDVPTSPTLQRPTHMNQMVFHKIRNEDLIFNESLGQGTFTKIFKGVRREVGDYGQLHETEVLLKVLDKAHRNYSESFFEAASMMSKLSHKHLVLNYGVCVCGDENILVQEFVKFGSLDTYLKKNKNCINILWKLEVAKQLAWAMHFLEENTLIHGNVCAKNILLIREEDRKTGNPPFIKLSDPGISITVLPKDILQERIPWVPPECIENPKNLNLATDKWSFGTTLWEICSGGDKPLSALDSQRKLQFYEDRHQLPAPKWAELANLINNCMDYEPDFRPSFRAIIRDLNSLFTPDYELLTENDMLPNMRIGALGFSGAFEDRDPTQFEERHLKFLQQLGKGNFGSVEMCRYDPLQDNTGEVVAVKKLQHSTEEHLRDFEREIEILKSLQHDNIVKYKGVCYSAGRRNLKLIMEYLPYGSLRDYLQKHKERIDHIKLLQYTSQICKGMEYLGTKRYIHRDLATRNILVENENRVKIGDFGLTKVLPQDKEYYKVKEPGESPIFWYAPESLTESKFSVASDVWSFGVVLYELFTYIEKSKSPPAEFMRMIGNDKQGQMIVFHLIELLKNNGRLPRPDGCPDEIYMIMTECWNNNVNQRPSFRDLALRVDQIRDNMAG
# [10] = biological target: CK1γ2 (Homo sapiens, UniProt P78368)
# CK1γ2, sequence (P78368 whole entry): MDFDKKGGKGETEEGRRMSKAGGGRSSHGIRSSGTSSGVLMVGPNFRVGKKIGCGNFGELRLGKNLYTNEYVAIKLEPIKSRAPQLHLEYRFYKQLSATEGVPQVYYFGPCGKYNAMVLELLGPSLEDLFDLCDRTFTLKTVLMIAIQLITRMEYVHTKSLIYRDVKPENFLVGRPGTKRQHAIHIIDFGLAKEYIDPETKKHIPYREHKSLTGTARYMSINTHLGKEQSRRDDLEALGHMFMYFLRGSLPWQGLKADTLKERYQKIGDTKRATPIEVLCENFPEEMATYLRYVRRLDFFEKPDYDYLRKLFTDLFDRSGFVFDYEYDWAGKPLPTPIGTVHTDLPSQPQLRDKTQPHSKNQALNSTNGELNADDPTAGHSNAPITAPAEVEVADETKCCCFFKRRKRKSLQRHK
# [11] = biological target: T3, MKK6 (Homo sapiens, UniProt P52564); details: read-out: Remaining protein kinase activity
# T3 sequence (P52564 1-334): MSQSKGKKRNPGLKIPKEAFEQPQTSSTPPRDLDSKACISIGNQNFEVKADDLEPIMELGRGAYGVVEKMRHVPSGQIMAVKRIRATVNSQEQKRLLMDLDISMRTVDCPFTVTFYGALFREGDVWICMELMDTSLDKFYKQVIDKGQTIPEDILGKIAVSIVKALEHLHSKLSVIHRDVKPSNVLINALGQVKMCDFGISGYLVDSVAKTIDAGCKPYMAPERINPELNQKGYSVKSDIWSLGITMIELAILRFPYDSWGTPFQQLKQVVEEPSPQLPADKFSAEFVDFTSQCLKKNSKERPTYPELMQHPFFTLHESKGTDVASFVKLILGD
# [12] = biological target: PKCγ (Homo sapiens, UniProt P05129); details: read-out: Remaining protein kinase activity
# [13] = biological target: ABL (Homo sapiens, UniProt P00519); details: read-out: Remaining protein kinase activity
# [14] = biological target: PKBa (Homo sapiens, UniProt P31749); details: read-out: Remaining protein kinase activity
# PDGFRA, sequence (P16234 24-1089): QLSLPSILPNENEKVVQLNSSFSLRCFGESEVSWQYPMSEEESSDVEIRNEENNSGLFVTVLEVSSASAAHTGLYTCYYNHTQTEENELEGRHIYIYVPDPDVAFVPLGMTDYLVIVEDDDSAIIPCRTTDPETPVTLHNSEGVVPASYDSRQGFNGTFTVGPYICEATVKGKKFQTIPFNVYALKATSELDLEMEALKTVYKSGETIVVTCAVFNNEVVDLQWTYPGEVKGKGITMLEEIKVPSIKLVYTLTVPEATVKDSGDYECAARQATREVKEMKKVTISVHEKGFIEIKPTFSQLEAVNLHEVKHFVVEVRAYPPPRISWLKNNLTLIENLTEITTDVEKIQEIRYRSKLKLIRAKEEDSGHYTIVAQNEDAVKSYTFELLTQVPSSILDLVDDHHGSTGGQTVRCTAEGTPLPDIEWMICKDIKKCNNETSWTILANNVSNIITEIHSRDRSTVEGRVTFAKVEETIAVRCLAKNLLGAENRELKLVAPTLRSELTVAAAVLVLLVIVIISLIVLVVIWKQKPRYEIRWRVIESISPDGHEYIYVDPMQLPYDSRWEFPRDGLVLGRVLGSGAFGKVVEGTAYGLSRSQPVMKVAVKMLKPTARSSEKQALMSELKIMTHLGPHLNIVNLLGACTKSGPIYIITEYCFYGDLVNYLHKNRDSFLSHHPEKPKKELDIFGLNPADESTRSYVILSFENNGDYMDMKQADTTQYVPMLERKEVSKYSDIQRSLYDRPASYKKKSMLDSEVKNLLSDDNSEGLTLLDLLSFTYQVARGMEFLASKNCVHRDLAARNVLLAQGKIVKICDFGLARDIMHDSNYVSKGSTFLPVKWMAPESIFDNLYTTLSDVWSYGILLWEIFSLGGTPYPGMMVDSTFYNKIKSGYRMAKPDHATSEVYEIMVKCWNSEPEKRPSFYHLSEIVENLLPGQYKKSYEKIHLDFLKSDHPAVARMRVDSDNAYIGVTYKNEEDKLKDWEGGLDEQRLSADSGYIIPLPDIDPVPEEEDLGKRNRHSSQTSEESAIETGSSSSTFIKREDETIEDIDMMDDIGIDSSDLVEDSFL
compound,measurement,setting,value
"COc1ccc2sc(-c3cncc(NC(C)=O)c3)nc2c1 [PST-001, N-(5-(5-Methoxybenzo[d]thiazol-2-yl)pyridin-3-yl)acetamide]",remaining activity at 1 µM,[1],100%
same,remaining activity at 100 µM,[1],73%
same,remaining activity at 1 µM,[2],113%
same,remaining activity at 100 µM,[2],129%
same,remaining activity at 1 µM,[3],119%
same,remaining activity at 100 µM,[3],104%
same,Remaining protein kinase activity,[4]; 1 μM,110%
same,Remaining protein kinase activity,[4]; 100 μM,106%
same,remaining activity at 1 µM,[5],117%
same,remaining activity at 100 µM,[5],120%
same,Remaining protein kinase activity,[6]; 1 μM,109%
same,Remaining protein kinase activity,[6]; 100 μM,60%
same,remaining activity at 1 µM,[7],99%
same,remaining activity at 100 µM,[7],59%
same,remaining activity at 1 µM,[8],102%
same,remaining activity at 100 µM,[8],82%
same,Remaining protein kinase activity,[9]; 1 μM,123%
same,Remaining protein kinase activity,[9]; 100 μM,125%
same,Remaining protein kinase activity,[10]; 1 μM,114%
same,Remaining protein kinase activity,[10]; 100 μM,101%
same,remaining activity at 1 µM,[11],140%
same,remaining activity at 100 µM,[11],115%
same,remaining activity at 1 µM,[12],125%
same,remaining activity at 100 µM,[12],124%
same,remaining activity at 1 µM,[13],97%
same,remaining activity at 100 µM,[13],99%
same,remaining activity at 1 µM,[14],116%
same,remaining activity at 100 µM,[14],106%
"COc1ccc2sc(-c3cncc(N)c3)nc2c1 [compound 1, 5-(5-Methoxybenzo[d]thiazol-2-yl)pyridin-3-amine]",remaining activity at 1 µM,"[1]; PDGFRA, 1 μM",101%
same,remaining activity at 100 µM,"[1]; PDGFRA, 100 μM",26%
same,remaining activity at 1 µM,"[2]; PAK5, 1 μM",111%
same,remaining activity at 100 µM,"[2]; PAK5, 100 μM",70%
same,remaining activity at 1 µM,"[3]; TBK1, 1 μM",105%
same,remaining activity at 100 µM,"[3]; TBK1, 100 μM",60%
same,Remaining protein kinase activity,[4]; 1 μM,103%
same,Remaining protein kinase activity,[4]; 100 μM,96%
same,remaining activity at 1 µM,"[5]; IRR, 1 μM",113%
same,remaining activity at 100 µM,"[5]; IRR, 100 μM",77%
same,Remaining protein kinase activity,[6]; 1 μM,101%
same,Remaining protein kinase activity,[6]; 100 μM,29%
same,remaining activity at 1 µM,"[7]; CK1δ, 1 μM",107%
same,remaining activity at 100 µM,"[7]; CK1δ, 100 μM",13%
same,remaining activity at 1 µM,"[8]; SGK1, 1 μM",99%
same,remaining activity at 100 µM,"[8]; SGK1, 100 μM",62%
same,Remaining protein kinase activity,[9]; 1 μM,117%
same,Remaining protein kinase activity,[9]; 100 μM,55%
same,Remaining protein kinase activity,[10]; 1 μM,108%
same,Remaining protein kinase activity,[10]; 100 μM,24%
same,remaining activity at 1 µM,"[11]; MKK6, 1 μM",120%
same,remaining activity at 100 µM,"[11]; MKK6, 100 μM",118%
same,remaining activity at 1 µM,"[12]; PKCγ, 1 μM",115%
same,remaining activity at 100 µM,"[12]; PKCγ, 100 μM",61%
same,remaining activity at 1 µM,"[13]; ABL, 1 μM",108%
same,remaining activity at 100 µM,"[13]; ABL, 100 μM",46%
same,remaining activity at 1 µM,"[14]; PKBa, 1 μM",120%
same,remaining activity at 100 µM,"[14]; PKBa, 100 μM",72%
